Assay results published in ChEMBL document CHEMBL5550103, “Design, synthesis, and antiviral activity of 1-aryl-4-arylmethylpiperazine derivatives as Zika virus inhibitors with broad antiviral spectrum” (Bioorg Med Chem, 2024).
Active and inactive are the calls of the source. The rule behind the calls is not given here.

Key:
[1] = Cytotoxicity against HUVECs assessed as reduction in cell viability incubated for 48 hrs by CCK-8 method; format: toxicity, cell-based; settings: human, HUVEC cells
[2] = Metabolic stability in human liver microsomes assessed as half life preincubated with NADPH for 10 mins followed by compound addition and measured upto 30 mins by LC-MS/MS analysis; format: ADME, Microsome; settings: time < 40 min
Zika virus [3] = assay: Antiviral activity against ZIKV infected in HUVECs pre-infected with virus followed by compound addition and measured after 48 hrs by qRT-PCR analysis; format: functional, organism-based; settings: HUVEC
[4] = Selectivity index, ratio of CC50 for HUVECs to EC50 for ZIKA virus infected in HUVECs; format: toxicity; settings: human, HUVEC cells; read-out: Ratio CC50/EC50
[5] = Metabolic stability in mouse liver microsomes assessed as half life preincubated with NADPH for 10 mins followed by compound addition and measured upto 30 mins by LC-MS/MS analysis; format: ADME, Microsome; settings: time < 40 min
Zika virus [6] = assay: Antiviral activity against ZIKV infected in HUVECs assessed as inhibition of viral replication at 10 uM pretreated with cells for 1 hr followed by viral infection for 1 hr prior to compound washout and measured after 48 hrs post infection by qRT-PCR analysis; format: functional, organism-based; settings: HUVEC, time 2.0 hrs
Zika virus [7] = assay: Antiviral activity against ZIKV infected in HUVECs assessed as reduction in NS5 protein level at 1 uM measured after 48 hrs by Western blot analysis; format: functional, organism-based; settings: HUVEC
Zika virus [8] = assay: Antiviral activity against ZIKV infected in HUVECs assessed as inhibition of viral replication at 10 uM pre-infected with virus for 1 hr prior to compound addition for 1 hr followed by compound washout and measured after 48 hrs post infection by qRT-PCR analysis; format: functional, organism-based; settings: HUVEC
[9] = Cytotoxicity against HUVECs assessed as reduction in cell viability at 5 uM incubated for 48 hrs by CCK-8 method relative to control; format: toxicity, cell-based; settings: human, HUVEC cells, values are per cent of control
Zika virus [10] = assay: Antiviral activity against ZIKV infected in HUVECs at 5 uM pre-infected with virus followed by compound addition and measured after 48 hrs by qRT-PCR analysis relative to control; format: functional; settings: HUVEC
Zika virus [11] = assay: Antiviral activity against ZIKV infected in HUVECs assessed as inhibition of viral replication at 10 uM incubated for 1 hr with subsequent addition of virus followed by compound washout and measured after 48 hrs post infection by qRT-PCR analysis; format: functional, organism-based; settings: HUVEC
HEK-293T = assay: Cytotoxicity against HEK293T cells assessed as reduction in cell viability at >10 uM measured after 24 hrs by CCK-8 method; format: toxicity, cell-based; settings: human
Zika virus [12] = assay: Antiviral activity against ZIKV infected in HUVECs assessed as reduction in viral attachment to AXL; format: functional, organism-based; settings: HUVEC
Human coronavirus OC43 = assay: Antiviral activity against Human coronavirus OC43 infected in BHK-21 cells assessed as inhibition of viral replication pre-infected with virus for 24 hrs followed by compound addition and measured after 48 hrs by luciferase assay; format: functional, organism-based; settings: Betacoronavirus 1, BHK-21
Zika virus [13] = assay: Antiviral activity against ZIKV infected in HUVECs assessed as reduction in NS5 protein level measured after 48 hrs by Western blot analysis; format: functional, organism-based; settings: HUVEC, dose 0.625-5 µM
Influenza A virus = assay: Antiviral activity against influenza A virus infected in HEK293T cells assessed as inhibition of viral replication pre-infected with virus followed by compound addition and measured after 24 hrs by luciferase assay; format: functional, organism-based; settings: HEK-293T

Row | Compound | CC50 at 48 h [1] [nM] | EC50 (Zika virus [3]) [nM] | selectivity ratio [4] | viability, % of control at 48 h, 5 µM [9] [%] | inhibition at 5 µM (Zika virus [10]) [%] | other results
1 | CN(C)CCN(C)c1ccc(C#N)c(CN2CCN(c3ccc(Cl)cc3)CC2)c1 | 19800 | 2190 | 9 | – | – | half-life [2]: > 1.53 h; half-life [5]: 0.548 h
2 | C#C[C@@]1(O)[C@H](O)[C@@H](CO)O[C@H]1n1ccc2c(N)ncnc21 | – | – | – | – | – | Activity (Zika virus [6]): inactive; Activity (Zika virus [7]): Active; Activity (Zika virus [8]): Active
3 | CN(C)CCN(C)c1ccc(C(F)(F)F)c(CN2CCN(c3ccc(C(F)(F)F)cc3)CC2)c1 | 14600 | 2930 | 5 | – | – | –
4 | CN(C)CCN(CCN(C)C)c1ccnc(CN2CCN(c3ccc(C(F)(F)F)cc3)CC2)c1 | – | – | – | 104 | < 10 | –
5 | Cc1ccc(N2CCN(Cc3cc(N(C)CCN(C)CCN(C)C)ccc3C(F)(F)F)CC2)cc1 | – | – | – | 98 | < 10 | –
6 | CN(C)CCN(C)c1ccnc(CN2CCN(c3ccc(C(F)(F)F)cc3)CC2)c1 | – | – | – | 103 | 33 | –
7 | Cc1ccc(N2CCN(Cc3cc(N(C)CCN(C)C)ccc3C(F)(F)F)CC2)cc1 | – | – | – | 103 | < 10 | –
8 | CN(C)CCN(C)CCN(C)c1ccc(C(F)(F)F)c(CN2CCN(c3ccncc3)CC2)c1 | > 50000 | 390 | > 128 | – | – | Activity (Zika virus [6]): Active; half-life [2]: > 1.53 h; Activity (Zika virus [11]): Active; Activity (HEK-293T): Toxic; Activity (Zika virus [12]): inactive; half-life [5]: 2.31 h; EC50 (Human coronavirus OC43): 2280 nM; Activity (Zika virus [8]): inactive; Activity (Zika virus [13]): Dose-Dependent Effect; EC50 (Influenza A virus): 2690 nM
9 | Clc1ccc(N2CCN(Cc3cc(N4CC5CN(Cc6ccccc6)CC5C4)ccn3)CC2)cc1 (stereo not drawn) | > 50000 | 2010 | > 25 | – | – | –
10 | CN1CCC2(CC1)CCN(c1ccc(C(F)(F)F)c(CN3CCN(c4ccc(C(F)(F)F)cc4)CC3)c1)C2 | 2270 | 590 | 4 | – | – | –
11 | Clc1ccc(N2CCN(Cc3cc(N4CCC5(CCN(Cc6ccccc6)CC5)C4)ccn3)CC2)cc1 | 20700 | 150 | 138 | – | – | –
12 | CN(C)CCN(C)CCN(C)c1ccnc(CN2CCN(c3ccc(Cl)cc3)CC2)c1 | > 50000 | 870 | > 58 | – | – | –
13 | CN1CCCN(c2ccc(C(F)(F)F)c(CN3CCN(c4ccc(C(F)(F)F)cc4)CC3)c2)CC1 | 9890 | 930 | 11 | – | – | –
14 | CN1CC2(CCN(c3ccnc(CN4CCN(c5ccc(Cl)cc5)CC4)c3)C2)C1 | > 50000 | 820 | > 61 | – | – | Activity (Zika virus [6]): Active; half-life [2]: > 1.53 h; Activity (Zika virus [11]): Active; Activity (HEK-293T): Toxic; Activity (Zika virus [12]): inactive; half-life [5]: 1.4 h; EC50 (Human coronavirus OC43): 2200 nM; Activity (Zika virus [8]): inactive; Activity (Zika virus [13]): Dose-Dependent Effect; EC50 (Influenza A virus): 2600 nM
15 | CN1CCN(c2ccnc(CN3CCN(c4ccc(Cl)cc4)CC3)c2)CC1 | > 50000 | 1460 | > 34 | – | – | –
16 | Cc1ccc(N2CCN(Cc3cc(N4CCC5(CCN(C)CC5)C4)ccn3)CC2)cc1 | – | – | – | 100 | < 10 | –
17 | Clc1ccc(N2CCN(Cc3cc(N4CCC5(CCCN5Cc5ccccc5)C4)ccn3)CC2)cc1 (stereo not drawn) | – | – | – | 91 | 49 | –
18 | Cc1ccc(N2CCN(Cc3cc(N4CCCN(C)CC4)ccn3)CC2)cc1 | – | – | – | 105 | < 10 | –
19 | CN1CCC2(CC1)CCN(c1ccnc(CN3CCN(c4ccc(Cl)cc4)CC3)c1)C2 | 31500 | 590 | 54 | – | – | –
20 | CN1CCCN(c2ccnc(CN3CCN(c4ccc(C(F)(F)F)cc4)CC3)c2)CC1 | > 50000 | 1320 | 66 | – | – | –
21 | CN1CC2CN(c3ccnc(CN4CCN(c5ccc(Cl)cc5)CC4)c3)CC2C1 (stereo not drawn) | > 50000 | 1220 | > 41 | – | – | –
22 | CN(C)CCN(C)c1ccc(C(F)(F)F)c(CN2CCN(c3ccc(Cl)cc3)CC2)c1 | 22400 | 1130 | 20 | – | – | –
23 | Cc1ccc(N2CCN(Cc3cc(N(C)CCN(C)C)ccn3)CC2)cc1 | – | – | – | 101 | < 10 | –
24 | CN(C)CCN(C)c1ccc(C(F)(F)F)c(CN2CCN(c3ccncc3)CC2)c1 | – | – | – | 107 | < 10 | –
25 | CN1CCC2(CC1)CCN(c1ccnc(CN3CCN(c4ccc(C(F)(F)F)cc4)CC3)c1)C2 | 30400 | 2180 | 14 | – | – | –
26 | Cc1ccc(N2CCN(Cc3cc(N4CCCN5CCCC5C4)ccn3)CC2)cc1 (stereo not drawn) | – | – | – | 100 | < 10 | –
27 | Cc1ccc(N2CCN(Cc3cc(N4CCCN(C)CC4)ccc3C(F)(F)F)CC2)cc1 | – | – | – | 105 | < 10 | –
28 | NC(=O)c1ncn([C@@H]2O[C@H](CO)[C@@H](O)[C@H]2O)n1 [RIBAVIRIN] | > 150000 | 2550 | > 59 | – | – | –
29 | CN(C)CCN(C)c1ccnc(CN2CCN(c3ccc(Cl)cc3)CC2)c1 | > 50000 | 950 | > 52 | – | – | –
